Values quoted from earlier work, collected in patent publication US7006921B1, “Method for accurately estimating pKa of molecules using atom type definitions and partial least squares” (priority 1999, dated 2006).

Conditions: for Measured (pKa): first or only pKa; for Measured (pKa2): second value of the cell

Measured (pKa)	Measured (pKa2)	Compound
1.80		Nc1ccc(Br)c([N+](=O)[O-])c1 [4-bromo-3-nitroaniline, 4-bromo-3-nitroaniline]
4.06		O=C(O)c1cc(Br)c[nH]1 [4-bromopyrrol-2-carboxylic acid, 4-bromopyrrol-2-carboxylic acid]
9.71		Cc1cc(O)cc(C)c1Cl [4-chloro-3,5-dimethylphenol, 4-chloro-3,5-dimethylphenol]
4.34		COc1cc(C(=O)O)cc(OC)c1O [4-hydroxy-3,5-dimethoxybenzoic acid, 4-hydroxy-3,5-dimethoxybenzoic acid]
9.82		NCCNCCO [5-amino-3-azapentanol, 5-amino-3-azapentanol]
9.0		Oc1c(O)c(O)c(O)c(O)c1O [Benzenehexol]
2.63		O=C(O)c1coc(C(=O)O)c1 [Furan-2,4-dicarboxylic acid, Furan-2,4-dicarboxylic acid]
6.2		C1N2CN3CN1CN(C2)C3 [Hexamethylenetetramine]
2.17	9.20	CSCC[C@H](N)C(=O)O [Methionine]
8.28		CC#CCN(C)C [N,N-dimethyl-2-butyn-1-amine, N,N-dimethyl-2-butyn-1-amine]
3.74		O=C(O)c1cc[nH]n1 [Pyrazole-3-carboxlylic acid, Pyrazole-3-carboxlylic acid]
9.12		Oc1cccc(O)c1O [Pyrogallol]
6.04		c1c[nH]cn1 [imidazole]

Continued, compound first:

Compound	Measured (pKa)	Measured (pKa2)
O=C(O)c1cnn[nH]1 [1,2,3-triazole-4-carboxylic acid, 1,2,3-triazole-4-carboxylic acid]	3.22	
NCCSCCSCCN [1,8-diamino-3,6-dithiaoctane, 1,8-diamino-3,6-dithiaoctane]	9.47	
CC(C)NCC(O)C1CCC(O)CC1 (stereo not shown) [1-(4′-hydroxycyclohexyl)-2-(isopropylamino)-ethanol]	10.23	
CC(=O)OCCN(C)C [2-(dimethylamino)-ethyl acetate, 2-(dimethylamino)-ethyl acetate]	8.35	
CNCC(N)=O [2-(methylamino)-acetamide, 2-(methylamino)-acetamide]	8.31	
CC(=O)C(CC(=O)O)C(=O)O (stereo not shown) [2-acetylbutanedioic acid, 2-acetylbutanedioic acid]	2.86	
NC1CCCCCC1O (stereo not shown) [2-aminocycloheptanol]	9.25	
CC(=O)c1cccnc1 [3-acetylpyridine]	3.26	
COc1cncc(Br)c1 [3-bromo-5-methoxypyridine, 3-bromo-5-methoxypyridine]	2.60	
Oc1cccnc1 [3-hydroxypyridine]	4.80	8.74
Nc1cc(Cl)ncn1 [4-amino-6-chloropyrimidine, 4-amino-6-chloropyrimidine]	2.10	
Nc1ccnnc1 [4-aminopyridazine]	6.65	
O=C(O)c1ccc(Br)cc1C(=O)O [4-bromo-1,2-benzenedicarboxylic acid, 4-bromo-1,2-benzenedicarboxylic acid]	2.5	
